Key:
HCV replicon genotype 1a = assay: HCV replicon assay, genotype 1a (cell ELISA for NS3/4A); format: cell-based, hepatitis C virus; settings: Hepatitis C virus, 96 h, read-out: 1a IC50 (nM), HCV genotype 1a replicon cells, 96 hours incubation, NS3/4A ELISA readout, % of DMSO control
Outline: (§1)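 Stable neomycin-resistant replicon cell lines (genotype 1a or 1b) incubated 96 h with compound dilution series without G418. After washing and lysis, replication measured by cell ELISA for replicon-encoded NS3/4A protein; IC50 as % of DMSO control via four-parameter fit.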

HCV replicon genotype 1b = assay: HCV replicon assay, genotype 1b (cell ELISA for NS3/4A); format: cell-based, hepatitis C virus; settings: Hepatitis C virus, 96 h, read-out: 1b IC50 (nM), HCV genotype 1b replicon cells, 96 hours incubation, NS3/4A ELISA readout, % of DMSO control
Outline: as §1

CNC(=O)c1c(-c2ccc(F)cc2)oc2cc(N(C)S(C)(=O)=O)c([C@@H]3CCCN(S(=O)(=O)c4ccc(C)cc4)C3)cc12 [Example 113, 2-(4-fluorophenyl)-N-methyl-6-[methyl(methylsulfonyl)amino]-5-{(3S)-1-[(4-methylphenyl)sulfonyl]piperidin-3-yl}-1-benzofuran-3-carboxamide]
IC50 (HCV replicon genotype 1a): 64.6 nM | IC50 (HCV replicon genotype 1b): 21.9 nM

CNC(=O)c1c(-c2ccc(F)cc2)oc2cc(N(C)S(C)(=O)=O)c([C@@H]3CCCN(S(=O)(=O)c4cccc(F)c4)C3)cc12 [Example 114, 2-(4-fluorophenyl)-5-{(3S)-1-[(3-fluorophenyl)sulfonyl]piperidin-3-yl}-N-methyl-6-[methyl(methylsulfonyl)amino]-1-benzofuran-3-carboxamide]
IC50 (HCV replicon genotype 1a): 34.2 nM | IC50 (HCV replicon genotype 1b): 8.2 nM

CNC(=O)c1c(-c2ccc(F)cc2)oc2cc(N(C)S(C)(=O)=O)c([C@@H]3CCCN(S(=O)(=O)c4ccc(F)cc4)C3)cc12 [Example 115]
IC50 (HCV replicon genotype 1a): 36.6 nM | IC50 (HCV replicon genotype 1b): 8 nM

CNC(=O)c1c(-c2ccc(F)cc2)oc2cc(N(C)S(C)(=O)=O)c([C@@H]3CCCN(S(=O)(=O)C4CCCCC4)C3)cc12 [Example 116, 5-[(3S)-1-(cyclohexylsulfonyl)piperidin-3-yl]-2-(4-fluorophenyl)-N-methyl-6-[methyl(methylsulfonyl)amino]-1-benzofuran-3-carboxamide]
IC50 (HCV replicon genotype 1a): 194 nM | IC50 (HCV replicon genotype 1b): 31.7 nM

CNC(=O)c1c(-c2ccc(F)cc2)oc2cc(N(C)S(C)(=O)=O)c([C@@H]3CCCN(S(=O)(=O)c4ccccc4)C3)cc12 [Example 117, 2-(4-fluorophenyl)-N-methyl-6-[methyl(methylsulfonyl)amino]-5-[(3S)-1-(phenylsulfonyl)piperidin-3-yl]-1-benzofuran-3-carboxamide]
IC50 (HCV replicon genotype 1a): 32.3 nM | IC50 (HCV replicon genotype 1b): 9.37 nM

CNC(=O)c1c(-c2ccc(F)cc2)oc2cc(N(C)S(C)(=O)=O)c([C@@H]3CCCN(S(=O)(=O)c4c(Cl)nc5sccn45)C3)cc12 [Example 118, 5-{(3S)-1-[(6-chloroimidazo[2,1-b][1,3]thiazol-5-yl)sulfonyl]piperidin-3-yl}-2-(4-fluorophenyl)-N-methyl-6-[methyl(methylsulfonyl)amino]-1-benzofuran-3-carboxamide]
IC50 (HCV replicon genotype 1a): 41 nM | IC50 (HCV replicon genotype 1b): 8.36 nM

CNC(=O)c1c(-c2ccc(F)cc2)oc2cc(N(C)S(C)(=O)=O)c([C@@H]3CCCN(S(=O)(=O)c4ccccc4F)C3)cc12 [Example 119, 2-(4-fluorophenyl)-5-{(3S)-1-[(2-fluorophenyl)sulfonyl]piperidin-3-yl}-N-methyl-6-[methyl(methylsulfonyl)amino]-1-benzofuran-3-carboxamide]
IC50 (HCV replicon genotype 1a): 24.5 nM | IC50 (HCV replicon genotype 1b): 10.9 nM

CNC(=O)c1c(-c2ccc(F)cc2)oc2cc(N(C)S(C)(=O)=O)c([C@@H]3CCCN(S(=O)(=O)c4cccc5nonc45)C3)cc12 [Example 120, 5-[(3S)-1-(2,1,3-benzoxadiazol-4-ylsulfonyl)piperidin-3-yl]-2-(4-fluorophenyl)-N-methyl-6-[methyl(methylsulfonyl)amino]-1-benzofuran-3-carboxamide]
IC50 (HCV replicon genotype 1a): 22.4 nM | IC50 (HCV replicon genotype 1b): 8.37 nM

CNC(=O)c1c(-c2ccc(F)cc2)oc2cc(N(C)S(C)(=O)=O)c([C@@H]3CCCN(S(=O)(=O)Cc4ccccc4)C3)cc12 [Example 121, 5-[(3S)-1-(benzylsulfonyl)piperidin-3-yl]-2-(4-fluorophenyl)-N-methyl-6-[methyl(methylsulfonyl)amino]-1-benzofuran-3-carboxamide]
IC50 (HCV replicon genotype 1a): 47.5 nM | IC50 (HCV replicon genotype 1b): 23.8 nM

CNC(=O)c1c(-c2ccc(F)cc2)oc2cc(N(C)S(C)(=O)=O)c([C@@H]3CCCN(S(=O)(=O)c4ccc5c(c4)CC(=O)N5)C3)cc12 [Example 122, 2-(4-fluorophenyl)-N-methyl-6-[methyl(methylsulfonyl)amino]-5-{(3S)-1-[(2-oxo-2,3-dihydro-1H-indol-5-yl)sulfonyl]piperidin-3-yl}-1-benzofuran-3-carboxamide]
IC50 (HCV replicon genotype 1a): 78.8 nM | IC50 (HCV replicon genotype 1b): 22.1 nM
